What was measured:
[1] = tested on: OG35 oligodendroglioma stem cells; assay: Cell cycle profile by propidium iodide staining and flow cytometry; assay type: cell-based, human; details: 0.25% GTA in SCM for 24 hours; OG35
Protocol: (§1) Cell cycle profiles were visualized by propidium iodide (PI) staining as previously described (Perez-Martinez & Jaworski (2005) J Neurosci 25:4917-29). OG35, OG33 and mouse neural stem cells were grown in stem cell medium (SCM; DMEM/F12, B27, 20 ng/ml ea bFGF & EGF) while the oligodendrocyte progenitor cell line, Oli-neu (Jung et al. (1995) Eur J Neurosci 7:1245-65) was grown in Sato's medium (DMEM supplemented with 100 μg/ml apotransferrin, 5 μg/ml insulin, 60 nM triiodothyronine, 30 nM sodium selenite, 100 μM putrescine, 1% horse serum, and 25 μg/ml G418). […] after 0.25% (v/v) GTA treatment, cells were trypsinized, recovered by centrifugation, re-suspended (10^6 cells/ml) in a low-salt PI solution ([…] polyethylene glycol PEG 8000, […], 180 U/ml RNase A, 0.1% Triton X-100, and 4 mM sodium citrate), and incubated at 37° C. for 20 minutes. After addition of an equal volume of high-salt PI solution ([…] polyethylene glycol PEG 8000, […], 180 U/ml RNase A, 0.1% Triton X-100, and 400 mM NaCl) and incubation at 4° C. for 1 hour, cell cycle profiles were recorded by flow cytometry (BD LSR 11 Flow Cytometer, BD Biosciences; Franklin Lakes, N.J.).

[2] = tested on: OG33 oligodendroglioma stem cells; assay: as above; assay type: cell-based, human; details: 0.25% GTA in SCM for 24 hours; OG33
Protocol: as §1

OG35 cells = assay: Immunocytochemistry after 5 days in differentiation medium with or without GTA; assay type: cell-based, human; details: 0.25% GTA, 5 days in DM
Protocol: (§2) Immunocytochemistry was performed as described (Perez-Martinez & Jaworski (2005) J Neurosci 25:4917-29). Briefly, OG33 and OG35 cells were plated into differentiaion medium (DMEM, 10% FBS) in the absence or presence of 0.25% GAT and fixed with 2% paraformaldehyde after 5 days. Antibodies: rabbit anti-human ASPA (1500×; GTX13389; GeneTex, Irvine, Calif.), Rabbit anti-mouse ASPA (2,000× for western blot) (Madhavarao et al., 2004 Comp Neurol 472:318-29), rabbit anti-mouse AceCS1 (15,000× western blot; 1,500× immunocytochemistry) (Ariyannur et al. 2010 J Comp Neurol 518:2952-77), rabbit anti-mouse 2′,3′-cyclic nucleotide 3′-phosphodiesterase (CNPase; 500×sc-30158; Santa Cruz Biotechnology, Santa Cruz, Calif.). Cy3- (500×) conjugated secondary antibodies were obtained from Jackson ImmunoResearch (West Grove, Pa.). Immunocytochemistry for Histone 3/Tubulin/poly(ADP-ribose) polymerase (PARP) was performed using the PathScan Multiplex IF kit per manufacturer's instructions (Cell Signaling Technology, Danvers, Mass.).

OG33 cells = assay: as above; assay type: cell-based, human; details: 0.25% GTA, 5 days in DM
Protocol: as §2

GBM12 astrocytoma GSCs = assay: Orthotopic graft in athymic mice, survival; assay type: in vivo; details: GBM 12 engrafted mice; GTA alone 5.8 g/kg daily; p<0.0001
Protocol: Cells (2,500 cells in 4 μl) were injected into the right striatum (1 mm anterior, 1.5 mm lateral to bregma, 3.5 mm deep) of adult athymic mice (8-week-old, 25-28 g). […]
For in vivo imaging, mice were injected i.p. with 150 mg/kg D-luciferin potassium salt 5 minutes prior to imaging under 1.5% inhaled isoflurane. Peak efflux was determined from an average of 15 bioluminescent acquisitions, with 1 min inter-acquisition intervals, using the auto-exposure setting. Total photon efflux was determined by drawing regions of interest over the emitted region and setting thresholds for each mouse to maximize the number of pixels encircled using Living Image acquisition and analysis software (Version 3.0.3.5, Caliper Life Sciences, Hopkinton, Mass.). […]
Tumor bioluminescence (rate of flux change over time) and tumor volume were compared using a Mann-Whitney test. Survival was analyzed using Kaplan-Meier curves [Kaplan, EL and P Meier. (1958) J Am Stat Assoc 53:457-481] and comparisons between groups were analyzed with a log-rank test [Peto, R and J Peto. […]

[3] = tested on: Oli-Neu cells, an oligodendrocyte progenitor cell (OPC) line; assay: Cell cycle profile by propidium iodide staining and flow cytometry; assay type: cell-based, murine; details: 0.25% GTA for 24 hours; Sato's medium; compared with GSCs
Protocol: as §1

## CC(=O)OCC(COC(C)=O)OC(C)=O [GTA, glyceryltriacetate]
[1]
  Cell cycle arrest: induced cell cycle arrest
[2]
  Cell cycle arrest: induced cell cycle arrest
OG35 cells; OG35
  Apoptosis (cleaved PARP, Asp214): no cleaved PARP
  Nuclear expression of ASPA: increase the nuclear expression of ASPA
  Proliferation (phospho-histone H3 [Ser 10]): decreased phospho-histone H3
OG35 cells; primarily in OG35 cells
  GSC differentiation (expression of CNPase, a marker of mature oligodendrocytes): increased expression of CNPase
OG33 cells
  Apoptosis (cleaved PARP, Asp214): no cleaved PARP
  Proliferation (phospho-histone H3 [Ser 10]): decreased phospho-histone H3
GBM12 astrocytoma GSCs
  Survival relative to vehicle treated mice: increased survival relative to vehicle treated mice
[3]
  Cell cycle arrest: less effect
